According to ChEMBL document CHEMBL1158256, “Betulinans A and B, two benzoquinone compounds from Lenzites betulina” (J Nat Prod, 1996):
Converted amounts (≈) assume the structure as drawn.

The compounds below were run on Liver microsomes (assay: Inhibition of lipid peroxidation in rat liver microsomes).
Format: functional, Microsome

IC50 [µg/mL] | Compound
2.88 (≈ 9.05 µM) | COC1=C(c2ccccc2)C(=O)C2=C(C1=O)c1ccccc1CO2 [BETULINAN B]
1.68 | VITAMIN E
0.46 (≈ 1.44 µM) | COC1=C(c2ccccc2)C(=O)C(OC)=C(c2ccccc2)C1=O [BETULINAN A]
